Patent US7951752B2, “O-cyclopropyl-carboxanilides and their use as fungicides” (Syngenta Crop Protection, Inc., priority 2002, dated 2011)

melting point: 61 to 65 °C
Compound: CC(C)CC1CC1c1ccccc1NC(=O)c1cn(C)cc1C(F)(F)F (stereo not shown) [Compound 3.17, 1-methyl-4-trifluoromethyl-1H-pyrrole-3-carboxylic acid [2-(2-isobutyl-cyclopropyl)phenyl]amide]
